Test results published in ChEMBL document CHEMBL1201862, “PubChem BioAssay data set” (2004).
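Five concentrations, 48 hours, 96-well plates. GI50 is the concentration that inhibits growth by half.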 Active and inactive are the calls of the source. No stated cut-off is given here; in the data, active = GI50 up to about 1.1 µM and inactive = higher.

How the values were obtained:
Assay in all cases: NCI tumour cell line growth inhibition, 48 h
UACC-257 = system: UACC-257
786-0 = system: 786-0
MOLT-4 = system: MOLT-4
U-251 = system: U-251
SK-MEL-5 = system: SK-MEL-5
SK-MEL-28 = system: SK-MEL-28
CAKI-1 = system: CAKI-1
NCI-H226 = system: NCI-H226
MCF7 = system: MCF7
NCI-H522 = system: NCI-H522
Malme-3M = system: Malme-3M
M14 = system: M14
PC-3 = system: PC-3
HL-60 = system: HL-60
OVCAR-8 = system: OVCAR-8
NCI-H460 = system: NCI-H460
OVCAR-4 = system: OVCAR-4
SW-620 = system: SW-620
UO-31 = system: UO-31
SF-295 = system: SF-295
EKVX = system: EKVX
NCI-H23 = system: NCI-H23
LOX IMVI = system: LOX IMVI
MDA-MB-435 = system: MDA-MB-435
SN12C = system: SN12C
HOP-62 = system: HOP-62
RXF 393 = system: RXF 393
HCT-15 = system: HCT-15
SNB-75 = system: SNB-75
HCC 2998 = system: HCC 2998
OVCAR-3 = system: OVCAR-3
SK-MEL-2 = system: SK-MEL-2
KM12 = system: KM12
HT-29 = system: HT-29
IGROV-1 = system: IGROV-1
A549 = system: A549
OVCAR-5 = system: OVCAR-5
BT-549 = system: BT-549
K562 = system: K562
SNB-19 = system: SNB-19
SK-OV-3 = system: SK-OV-3
HOP-92 = system: HOP-92
SF-268 = system: SF-268
NCI/ADR-RES = system: NCI/ADR-RES
UACC-62 = system: UACC-62
COLO 205 = system: COLO 205
MDA-MB-231 = system: MDA-MB-231
HCT-116 = system: HCT-116
ACHN = system: ACHN
Hs-578T = system: Hs-578T
SR = system: SR
DU-145 = system: DU-145
TK-10 = system: TK-10
SF-539 = system: SF-539
CCRF-CEM = system: CCRF-CEM
T47D = system: T47D
A498 = system: A498

## CC(C)(C)OC(=O)N1CCC23CCCC2C(=O)CC=C13 (centres undefined)
UACC-257
  GI50: 11.8 µM (inactive)
786-0
  GI50: > 100 µM (inactive)
MOLT-4
  GI50: > 100 µM (inactive)
U-251
  GI50: > 100 µM (inactive)
SK-MEL-5
  GI50: > 100 µM (inactive)
SK-MEL-28
  GI50: > 100 µM (inactive)
CAKI-1
  GI50: > 100 µM (inactive)
NCI-H226
  GI50: > 100 µM (inactive)
MCF7
  GI50: > 100 µM (inactive)
NCI-H522
  GI50: 66.4 µM (inactive)
Malme-3M
  GI50: > 100 µM (inactive)
M14
  GI50: > 100 µM (inactive)
PC-3
  GI50: > 100 µM (inactive)
HL-60
  GI50: > 100 µM (inactive)
OVCAR-8
  GI50: > 100 µM (inactive)
NCI-H460
  GI50: > 100 µM (inactive)
OVCAR-4
  GI50: > 100 µM (inactive)
SW-620
  GI50: > 100 µM (inactive)
UO-31
  GI50: > 100 µM (inactive)
SF-295
  GI50: > 100 µM (inactive)
EKVX
  GI50: > 100 µM (inactive)
NCI-H23
  GI50: > 100 µM (inactive)
LOX IMVI
  GI50: > 100 µM (inactive)
MDA-MB-435
  GI50: > 100 µM (inactive)
SN12C
  GI50: > 100 µM (inactive)
HOP-62
  GI50: > 100 µM (inactive)
RXF 393
  GI50: > 100 µM (inactive)
HCT-15
  GI50: > 100 µM
SNB-75
  GI50: > 100 µM (inactive)
HCC 2998
  GI50: > 100 µM (inactive)
OVCAR-3
  GI50: > 100 µM (inactive)
SK-MEL-2
  GI50: > 100 µM (inactive)
KM12
  GI50: > 100 µM (inactive)
HT-29
  GI50: > 100 µM (inactive)
IGROV-1
  GI50: > 100 µM (inactive)
A549
  GI50: > 100 µM (inactive)
OVCAR-5
  GI50: > 100 µM (inactive)
BT-549
  GI50: > 100 µM (inactive)
K562
  GI50: > 100 µM (inactive)
SNB-19
  GI50: > 100 µM (inactive)
SK-OV-3
  GI50: > 100 µM (inactive)
HOP-92
  GI50: 38.3 µM (inactive)
SF-268
  GI50: > 100 µM (inactive)
NCI/ADR-RES
  GI50: > 100 µM (inactive)
UACC-62
  GI50: > 100 µM (inactive)
COLO 205
  GI50: 70.8 µM (inactive)
MDA-MB-231
  GI50: > 100 µM (inactive)
HCT-116
  GI50: 72.4 µM (inactive)
ACHN
  GI50: > 100 µM (inactive)
Hs-578T
  GI50: > 100 µM (inactive)
SR
  GI50: > 100 µM (inactive)
DU-145
  GI50: > 100 µM (inactive)
TK-10
  GI50: > 100 µM (inactive)
SF-539
  GI50: > 100 µM (inactive)
CCRF-CEM
  GI50: 37.9 µM (inactive)
T47D
  GI50: > 100 µM (inactive)

## O=C(/C=C/c1cccs1)c1ccc(C(=O)/C=C/c2cccs2)cc1
UACC-257
  GI50: > 100 µM (inactive)
A498
  GI50: > 100 µM (inactive)
786-0
  GI50: > 100 µM (inactive)
MOLT-4
  GI50: > 100 µM (inactive)
U-251
  GI50: > 100 µM (inactive)
SK-MEL-28
  GI50: > 100 µM (inactive)
CAKI-1
  GI50: > 100 µM (inactive)
NCI-H226
  GI50: > 100 µM (inactive)
NCI-H522
  GI50: > 100 µM (inactive)
Malme-3M
  GI50: > 100 µM (inactive)
M14
  GI50: > 100 µM (inactive)
PC-3
  GI50: > 100 µM (inactive)
OVCAR-8
  GI50: > 100 µM (inactive)
NCI-H460
  GI50: > 100 µM (inactive)
OVCAR-4
  GI50: > 100 µM (inactive)
SW-620
  GI50: > 100 µM (inactive)
UO-31
  GI50: > 100 µM (inactive)
SF-295
  GI50: > 100 µM (inactive)
EKVX
  GI50: > 100 µM (inactive)
NCI-H23
  GI50: > 100 µM (inactive)
MDA-MB-435
  GI50: > 100 µM (inactive)
SN12C
  GI50: > 100 µM (inactive)
HOP-62
  GI50: > 100 µM (inactive)
HCT-15
  GI50: > 100 µM
SNB-75
  GI50: > 100 µM (inactive)
HCC 2998
  GI50: > 100 µM (inactive)
OVCAR-3
  GI50: > 100 µM (inactive)
KM12
  GI50: > 100 µM (inactive)
HT-29
  GI50: > 100 µM (inactive)
IGROV-1
  GI50: > 100 µM (inactive)
A549
  GI50: > 100 µM (inactive)
OVCAR-5
  GI50: > 100 µM (inactive)
BT-549
  GI50: > 100 µM (inactive)
SNB-19
  GI50: > 100 µM (inactive)
SK-OV-3
  GI50: > 100 µM (inactive)
HOP-92
  GI50: > 100 µM (inactive)
SF-268
  GI50: > 100 µM (inactive)
NCI/ADR-RES
  GI50: > 100 µM (inactive)
UACC-62
  GI50: > 100 µM (inactive)
COLO 205
  GI50: > 100 µM (inactive)
MDA-MB-231
  GI50: > 100 µM (inactive)
ACHN
  GI50: > 100 µM (inactive)
Hs-578T
  GI50: > 100 µM (inactive)
SR
  GI50: > 100 µM (inactive)
DU-145
  GI50: > 100 µM (inactive)
TK-10
  GI50: > 100 µM (inactive)
SF-539
  GI50: > 100 µM (inactive)
T47D
  GI50: > 100 µM (inactive)
